These results are taken from PMC5690597, “Suppression and resolution of autoimmune arthritis by rhesus θ-defensin-1, an immunomodulatory macrocyclic peptide” (PLoS ONE, 2017).

This test relates to DA/OlaHsd rats with pristane-induced arthritis. Description: Pristane-induced arthritis (PIA), established disease (AS ≥ 3). The test is classed as in vivo, rat. As to conditions: for effect on arthritis progression by day 3 of treatment compared to vehicle controls: MTX 0.25 mg/kg i.p. q3d, etanercept 0.4 mg/kg s.c. q3d, P < 0.05; for rate of complete disease resolution on day 11, comparison with RA drugs: RTD-1 s.c. (4 of 16), MTX 0.25 mg/kg i.p. q3d (1 of 22), etanercept 0.4 mg/kg s.c. q3d (0 of 21), saline 0 of 19, 2 independent experiments. How it is done:
Female DA/OlaHsd (D blood group allele and Agouti, also known as Dark Agouti), rats were obtained from Harlan Laboratories (Indianapolis, IN). Animals were allowed to acclimate for 48–72 hours prior to experimental use. Animals were fed standard chow ad lib during a 12-hour day/night cycle. PIA was induced in 5–7 week old animals (90–100 gm) by intradermal injection of 250 μl pristane (Sigma) divided into 3–5 sites at the base of the tail. Animals were monitored daily and disease severity of each limb was scored 0–4 using the method of Brand et al.. The severity scores for all limbs of individual animals were totaled to give an individual’s arthritis severity score (AS) ranging from zero for normal animals to maximum disease score of sixteen. […] In three separate trials, treatment was also blinded to scorers. […] Treatment with saline (vehicle), RTD-1, or anti-arthritic agents was randomized and initiated when an animal first presented with an AS of 3 or more. RTD-1 was administered subcutaneously with doses ranging from 0.2 to 5.0 mg/kg in an injection volume of 0.5 ml at intervals ranging from once a day (qd) to once every seven days (q7d). MTX was administered at 0.25 mg/kg by intraperitoneal injection q3d. Etanercept was administered at 0.4 mg/kg by subcutaneous injection q3d.

Consider `CN(Cc1cnc2nc(N)nc(N)c2n1)c1ccc(C(=O)N[C@@H](CCC(=O)O)C(=O)O)cc1` [MTX, Methotrexate, reference compound], for which the “effect on arthritis progression by day 3 of treatment compared to vehicle controls” value is on record as “limited the progression of arthritis” and the “rate of complete disease resolution on day 11, comparison with RA drugs” value is 4.5%.

As for Etanercept [reference compound], the “effect on arthritis progression by day 3 of treatment compared to vehicle controls” value is “limited the progression of arthritis” and the “rate of complete disease resolution on day 11, comparison with RA drugs” value worked out at 0%.
